According to article PMC8036603, “Small Molecule Inhibitors of White Spot Syndrome Virus: Promise in Shrimp Seedling Culture” (International Journal of Molecular Sciences, 2021):

Assays:
[1] = tested on: white spot syndrome virus (WSSV); experiment: Survival of WSSV-infected shrimp larvae on co-incubation with compound; format: in vivo, Litopenaeus vannamei; conditions: for enhancement of survival rate in WSSV-infected larvae: 72 hpi, 10 mg/L, co-incubation; for decrease of mortality of WSSV-infected larvae after exposure: abstract statement
Protocol: For in vivo study of co-incubation, C2 and C7 was separately incubated with WSSV and shrimp larvae.
Figure 2 C2 and C7 inhibited WSSV infection in shrimp larvae. (A) Schematic diagram describing the workflow. (B) The survival rate of WSSV-infected shrimp was analyzed in 0.31 to 10 mg/L treatments at 72 hpi. (C) Survivorship curve of WSSV-infected shrimp was analyzed in C2 and C7 up to 10 mg/L treatment. (D) Quantification on copy number of viral genome was tested by exposure to C2 and C7 up to 10 mg/L treatment at 24, 48, and 72 hpi, respectively. The virus-infected shrimps were immersed with the compounds and DMSO at the dose 0.2‰ (v/v). Each value is represented as the mean ± SD normalized to values for no treatment. The p value for each study was determined by Student’s t tests. ** p < 0.01.
[…], shrimp larvae were randomly selected, separated into six-well plates containing ultraviolet light-sterilized aquacultural water, and infected with WSSV (final viral titer of 1.6 × 10^5 copies/µL) in the presence of coumarins for 72 h. Mock negative controls (1% DMSO) were also used. The homogenate of each well containing sick or dead shrimp was subjected to low-speed centrifugation (2000× g). The viral load was quantified by determining the copy number of the viral genome in samples by quantitative reverse transcription polymerase chain reaction (RT-qPCR) assay, as previously described.

[2] = tested on: white spot syndrome virus (WSSV); experiment: Continuous immersion with compound exchange after WSSV infection; format: in vivo, Litopenaeus vannamei; conditions: for survival rate: 10 mg/L
Protocol: For continuous immersion with cultural medium exchange, the culture water in each well was replaced by C2/C7 or DMSO solution after WSSV infection (final viral titer of 1.6 × 10^5 copies/µL) for 24 h. Every 24 h, the shrimp were transformed into a new challenge well with fresh water and a fresh dose of C2/C7 or DMSO (0.2‰) for an additional 5 days. The survival shrimps were euthanized with MS-222 and frozen at −80 °C until processing. The survival of shrimp larvae and the copy number of viral genome in samples were described as above.

[3] = 60 h after exposure, larvae pre-infected 24 h, no exchange, untreated 0%
[4] = at 120 h, compound exchanged one to four times

Row | Compound | enhancement of survival rate in WSSV-infected larvae [1] | decrease of mortality of WSSV-infected larvae after exposure [1] | survival rate [2, 3] | mortality with continuous immersion of compound exchange ([2]; at 120 h) | survival rate [2, 4]
1 | 2-amino-4-(4-chlorophenyl)-5-oxo-4H,5H-pyrano[3,2-c]chromene-3-carbonitrile [C7] | more than 65% | more than 60% | 50% | 40% | more than 60%
2 | Cc1ccc(C2C(C#N)=C(N)Oc3c2c(=O)oc2ccccc32)cc1 (stereo not shown) [C2, 2-amino-5-oxo-4-(p-tolyl)-4H,5H-pyrano[3,2-c]chromene-3-carbonitrile] | more than 65% | more than 60% | 50% | 40% | more than 60%
